# In US20020032236A1, “Method for the treatment of dermatological diseases by using nimesulide” (priority 2000, published 2002):
# System: pustular psoriasis, gangrenous pyoderma, capillitium erosive dermatitis and Dick & Syme syndrome
# Conditions: 200 mg/day for 3 weeks, followed by 100 mg/day for three weeks
# Description: Double blind clinical studies were carried out on patients suffering from pustular psoriasis, gangrenous pyoderma, capillitium erosive dermatitis and Dick & Syme syndrome. Patients were treated with Nimesulide, at a dosage of 200 mg/day for 3 weeks, followed by 100 mg/day for three weeks.
# At the end of the treatment, the following parameters were evaluated: number of the skin lesions extent of the skin lesions relief from pain at the nodule sites
# [1] = patients, at the end of the treatment
smiles,measurement,setting,value
CS(=O)(=O)Nc1ccc([N+](=O)[O-])cc1Oc1ccccc1 [Nimesulide],"remission of the ""disease""",in some cases,complete remission
same,side effects,patients,no side effects were observed
same,"effectiveness in the treatment of the ""diseases""",[1],statistically effective
same,extent of the skin lesions,[1],regression of the skin lesions
same,number of the skin lesions,[1],regression of the skin lesions
same,relief from pain at the nodule sites,[1],almost complete disappearance of pain
